Read-outs that look alike come from different tables or passages of the source.
Assays:
[1] = tested on: SARS-CoV; conditions: background, cited sources; cited from earlier work
[2] = tested on: SARS CoV; format: cell-based; conditions: for mean number of plaques: 3 days incubation at 37° C., vero C1008 cells; for plaques as % of virus control: virus control = 100%
[3] = tested on: RSV S2; format: cell-based; conditions: 100 μg/ml

Cc1cccc(C)c1OCC(=O)N[C@@H](Cc1ccccc1)[C@@H](O)C[C@H](Cc1ccccc1)NC(=O)[C@H](C(C)C)N1CCCNC1=O [Lopinavir]
activity against SARS virus (reported in literature/news) [1]: partially active

CCOC(=O)/C=C/[C@H](C[C@@H]1CCNC1=O)NC(=O)[C@@H](CC(=O)[C@@H](NC(=O)c1cc(C)on1)C(C)C)Cc1ccc(F)cc1 [AG7088]
activity against SARS virus (reported in literature/news) [1]: failed to inhibit virus

Cc1c(O)cccc1C(=O)N[C@@H](CSc1ccccc1)[C@H](O)CN1C[C@H]2CCCC[C@H]2C[C@H]1C(=O)NC(C)(C)C [Nelfinavir]
activity against SARS virus (reported in literature/news) [1]: partially active

CC1(C)[C@@H](O[C@H]2O[C@H](C(=O)O)[C@@H](O)[C@H](O)[C@H]2O[C@@H]2O[C@H](C(=O)O)[C@@H](O)[C@H](O)[C@H]2O)CC[C@]2(C)[C@H]3C(=O)C=C4[C@@H]5C[C@@](C)(C(=O)O)CC[C@]5(C)CC[C@@]4(C)[C@]3(C)CC[C@@H]12 [glycyrrhizin]
activity against SARS virus (reported in literature/news) [1]: appear to be efficacious

NC(=O)c1ncn([C@@H]2O[C@H](CO)[C@@H](O)[C@H]2O)n1 [Ribavirin]
activity against SARS virus (reported in literature/news) [1]: appear to be efficacious
mean number of plaques ([2]; Ribavirin 10 μg/ml): mean 114.75
plaques as % of virus control ([2]; Ribavirin 10 μg/ml): (97.5%)
mean number of plaques ([2]; Ribavirin 100 μg/ml): mean 87.25
plaques as % of virus control ([2]; Ribavirin 100 μg/ml): (74.1%)
plaque size compared with controls ([2]; higher concentrations (Ribavirin 100 μg/ml, PYN5C 200 μg/ml)): smaller than for the controls
protection of the cells against RSV [3]: did not protect
